Columns and labels:
[1] = system: E. coli BL21(DE3)/pET30a-IMP-1; assay type: cell-based; settings: thioester conc giving 4-fold increase in sensitivity to the Merck carbapenem (0.25x MIC), no visible growth after 20 hours at 35° C.
From the text: A laboratory strain of E.coli engineered to express IMP-1 was used to evaluate the ability of thiol derivatives to reverse metallo-β-lactamase-mediated carbapenem resistance in bacteria. Native IMP-1, which included the N-terminal periplasmic signal sequence, was PCR amplified from […] isolated from a carbapenem resistant P. aeruginosa clinical isolate, CL56673, and cloned into the pET30a vector.

E. coli BL21(DE3) = experiment: Carbapenem sensitivity (MIC) of E. coli BL21(DE3) with and without IMP-1 expression; assay type: cell-based; settings: for fold reduced sensitivity caused by basal (uninduced) IMP-1 expression: pET30a-IMP-1 in E. coli BL21(DE3)
Protocol: A laboratory strain of E.coli engineered to express IMP-1 was used to evaluate the ability of thiol derivatives to reverse metallo-β-lactamase-mediated carbapenem resistance in bacteria. Native IMP-1, which included the N-terminal periplasmic signal sequence, was PCR amplified from […] isolated from a carbapenem resistant P. aeruginosa clinical isolate, CL56673, and cloned into the pET30a vector. […] Various concentrations of IMP-1 inhibitor were added to the bacterial growth medium and their capacity to effect a four-fold or greater increase in sensitivity to the carbapenem was monitored.

Molecule	Effective conc for 4-fold reduction of MIC in E. coli [1]	fold reduced sensitivity caused by basal (uninduced) IMP-1 expression (E. coli BL21(DE3))	also measured
CC(=O)SC(Cc1ccc2oc3ccccc3c2c1)C(=O)O (centres unmarked) [Example 78]	≦0.1 μM		
O=C(SC(Cc1ccc2oc3ccccc3c2c1)C(=O)O)c1ccccc1 (centres unmarked) [Example 79]	0.2 µM		
C[C@@H](O)[C@H]1C(=O)N2C(C(=O)O)=C(S[C@@H]3CN[C@H](C(=O)N(C)C)C3)[C@H](C)[C@H]12 [meropenem]		64 fold	
C[C@@H](O)[C@H]1C(=O)N2C(C(=O)O)=C(SCCN=CN)C[C@H]12 [impenem]		4 fold	
(1S,5R,6S)-1-methyl-2-{7-[4-(aminocarbonylmethyl)-1,4-diazoniabicyclo(2.2.2)octan-1-yl]methyl-fluoren-9-on-3-yl}-6-(1R-hydroxyethyl)-carbapen-2-em-3-carboxylate chloride		500 fold	minimum inhibitory concentration (MIC), without IMP-1 expression (E. coli BL21(DE3); E. coli BL21(DE3), before expression of IMP-1): 0.06 to 0.12 µg/mL; minimum inhibitory concentration (MIC), with IMP-1 expression (E. coli BL21(DE3); E. coli BL21(DE3)/pET30a-IMP-1, basal IMP-1 expression): 16 to 32 µg/mL
CC(=O)N[C@H](C)C(=O)S[C@H](Cc1ccc(-c2ccccc2)cc1)C(=O)O [Example 13]	6.3 µM		
